Test results as given in US4957909A, “Benzobicycloalkane derivatives as anticonvulsant neuroprotective agents” (American Home Products Corporation, priority 1990, dated 1990).

Experiments:
[1] = test system: male Swiss-albino mice (CD-1 strain); assay: NMDA antagonism in mice: NMDA-induced generalized myoclonus and death, ED50 for survival; assay type: in vivo; conditions: mice pretreated 30 min before NMDA 195 mg/kg i.p.
Procedure: The mice were pretreated with the representative test compounds followed thirty minutes later with NMDA (195 mg/kg, i.p., the ED90 dose for generalized myoclonus). The mice were then observed for 30 minutes, noting the latency of onset of generalized myoclonus (uncontrollable hind leg scratching or limbs and/or torso muscle jerking with loss of righting reflex) and death. From the latter, the ED50 for survival is determined.

[2] = test system: NMDA-induced neuronal release of norepinephrine; assay: Inhibition of NMDA-induced [3H]norepinephrine release from rat hippocampal slices; assay type: cell-based; conditions: 100 μM concentration, NMDA 150 μM
Procedure: In addition, the compounds involved herein were established as inhibitors of NMDA-induced neuronal release of norepinephrine by showing that (-)-13β-methylamino-3-methoxy-5α-methyl-5,6,7,8,9,10,11,12-octahydro-5,11-meth-anobenzocyclodecene inhibits 89 percent of the NMDA-inducednorepinephrine release at 100 μM concentration in the following standard test procedure:
Rat hippocampal slices (0.5 mm thick) were incubated (37° C.) for 30 minutes in oxygenated (bubbled 95% O2 /5% CO2), physiological medium (containing 117 mM NaCl, 4.7 mM KCl, 11.5 mM glucose, 1.2 mM MgCl2, 10 μM pargyline, 1 mM ascorbate, 1.2 mM NaH2 PO4 and 25 mM NaHCO3, adjusted to pH 7.4). The slices were then washed with 0.9% NaCl and incubated in physiological medium with 0.1 μM [^3 H] norepinephrine (30 minutes, 37° C.). The slices were again washed with 0.9% NaCl and then placed in tubes (borosilicate glass, 12×75 mm) containing 0.5 ml Mg^+2 -free physiological medium with 50 μM corticosterone and 10 μM desipramine added to minimize norepinephrine reuptake. Samples were analyzed for [^3 H] content at 5 minute intervals. After 75 minutes, the inhibitor drug was added. Fifteen minutes later NMDA was added to a concentration of 150 μM. The amount of [^3 H] released was measured by liquid scintillation spectroscopy. […]

Q: `CNC1C2CCCCCC1(C)c1cc(OC)ccc1C2` (single isomer, unassigned; (-)) [(-)-13β-methylamino-3-methoxy-5α-methyl-5,6,7,8,9,10,11,12-octahydro-5,11-methanobenzocyclodecene] was tested. Which ED50 for survival ([1]; i.p.) did it give?
A: The ED50 for survival was 56 mg/kg.

Q: And the ED50 for survival ([1]; p.o.)?
A: The ED50 for survival was 97 mg/kg.

Q: And the “inhibition of NMDA-induced norepinephrine release” value [2]?
A: The value was 89%.
